For assay [1], the system named is RAW264.7. Nature of the assay: Inhibition of p65 phosphorylation in LPS-stimulated mouse RAW264.7 cells at 1 to 10 uM incubated for 6 hrs by wester blot analysis. The settings on record: dose 1-10 µM. It is filed as cell-based.
The subject of assay [2] is RAW264.7. Nature of the assay: Inhibition of p65 nuclear translocation in LPS-stimulated mouse RAW264.7 cells at 1 to 10 uM incubated for 6 hrs by western blot analysis. It is filed as cell-based. The settings on record: dose 1-10 µM. (Immunoblotting shows a protein as a band on a membrane.)
Assay [3] concerns HEK-293T. Nature of the assay: Antiproliferative activity against mutant HEK293T cells overexpressing p65 C38A mutant assessed as inhibition of cell proliferation incubated for 72 hrs by Alamar Blue dye based fluorescence analysis. The note with it: Homo sapiens. It is filed as functional.
A short description of assay [4]: Displacement of biotin-labeled p65 binding oligonucleotides from p65/p65-C38A mutant (unknown origin) overexpressed in HEK293T cell nuclear extract incubated for 2 hrs by electrophoretic mobility shift assay. Type of assay: subcellular, Homo sapiens, Nucleus.
For assay [5], the system named is RAW264.7. Nature of the assay: Inhibition of NF-kappaB signaling pathway in mouse RAW264.7 cells assessed as decrease in COX-2 protein expression at 10 to 75 uM incubated for 6 hrs by western blot analysis. It is filed as cell-based. The settings on record: dose 10-75 µM.
Assay [6] concerns HEK-293T. Nature of the assay: Antiproliferative activity against HEK293T cells overexpressing p65 C38A mutant assessed as inhibition of cell proliferation incubated for 72 hrs by Alamar Blue dye based fluorescence analysis. Type of assay: functional. The settings on record: Homo sapiens.
Assay [7] concerns the target T1, Transcription factor p65 (Homo sapiens, UniProt Q04206). Nature of the assay: Binding affinity to recombinant FLAG-tagged p65 (unknown origin) expressed in HEK293T cells assessed as retention time of carbamidomethylation on Cys38 residue of C38EGRSAGSIPGERSTDTTK56 with m/z 814.7165 measured following LysC digestion at 10 uM incubated for 3 hrs by HCD/EThcD based mass spectrometry. It is filed as cell-based.

In assay [8] the target is T1, Transcription factor p65. Nature of the assay: Displacement of biotin-labeled p65 binding oligonucleotides from p65 (unknown origin) overexpressed in HEK293T cell nuclear extract incubated for 2 hrs by electrophoretic mobility shift assay. Type of assay: subcellular, Nucleus. A general note: Mobility shift assays separate free from complexed probe on a gel.
The nature of assay [9]: Ratio of IC50 for antiproliferative activity against HEK293T cells overexpressing p65 C38A mutant to IC50 for HEK293T cells overexpressing p65. Type of assay: functional, Homo sapiens.
Assay [10] has as its system HEK-293T. Nature of the assay: Antiproliferative activity against HEK293T cells overexpressing p65 assessed as inhibition of cell proliferation incubated for 72 hrs by Alamar Blue dye based fluorescence analysis. Type of assay: functional. The settings on record: Homo sapiens. Background: Resazurin is reduced to fluorescent resorufin, in cell work by metabolically active cells.

In assay [11] the target is T1, Transcription factor p65. Nature of the assay: Binding affinity to recombinant FLAG-tagged p65 (unknown origin) expressed in HEK293T cells assessed as 490.2203 Da modification on Cys38 residue of C38EGRSAGSIPGERSTDTTK56 measured following LysC digestion at 10 uM incubated for 3 hrs by HCD/EThcD based mass spectrometry. It is filed as cell-based.
The target in assay [12] is T1, Transcription factor p65. Nature of the assay: Binding affinity to recombinant FLAG-tagged p65 (unknown origin) expressed in HEK293T cells assessed as retention time of carbamidomethylation on Cys38 residue of C38EGRSAGSIPGERSTDTTK56 with m/z 814.7164 measured following LysC digestion at 10 uM incubated for 3 hrs by HCD/EThcD based mass spectrometry. It is filed as cell-based.

Assay [13] concerns RAW264.7. Nature of the assay: Inhibition of NF-kappaB signaling pathway in mouse RAW264.7 cells assessed as decrease in iNOS protein expression at 10 to 75 uM incubated for 6 hrs by western blot analysis. Type of assay: cell-based. The note with it: dose 10-75 µM.
The nature of assay [14]: Ratio of IC50 for antiproliferative activity against mutant HEK293T cells overexpressing p65 C38A mutant to IC50 for antiproliferative activity against HEK293T cells. Type of assay: functional, Homo sapiens.
For assay [15], the target named is T2, NF-kappa-B inhibitor alpha (Mus musculus) (UniProt Q9Z1E3).
T2 sequence (whole entry): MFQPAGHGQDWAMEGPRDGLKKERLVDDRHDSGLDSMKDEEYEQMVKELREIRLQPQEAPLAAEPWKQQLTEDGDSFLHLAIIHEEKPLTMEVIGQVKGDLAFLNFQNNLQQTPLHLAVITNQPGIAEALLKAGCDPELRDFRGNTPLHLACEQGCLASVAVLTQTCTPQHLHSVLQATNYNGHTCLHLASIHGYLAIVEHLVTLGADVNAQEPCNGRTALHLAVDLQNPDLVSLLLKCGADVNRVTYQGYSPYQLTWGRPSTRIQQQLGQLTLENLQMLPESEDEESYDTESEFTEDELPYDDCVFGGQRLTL
Nature of the assay: Inhibition of IkappaB alpha phosphorylation in LPS-stimulated mouse RAW264.7 cells at 1 to 10 uM incubated for 6 hrs by western blot analysis. The note with it: dose 1-10 µM. It is filed as cell-based.

Assay [16] concerns HEK-293T. Nature of the assay: Antiproliferative activity against HEK293T cells assessed as inhibition of cell proliferation incubated for 72 hrs by Alamar Blue dye based fluorescence analysis. Type of assay: functional. The settings on record: Homo sapiens.

Calls of active or inactive are those of the source. The rule behind the calls is not given here.

Consider one molecule from ChEMBL document CHEMBL6083237, “Adenanthin exhibits anti-inflammatory effects by covalently targeting the p65 subunit in the NF-κB signaling pathway” (Eur J Med Chem, 2024).

T1 sequence (Q04206 whole entry): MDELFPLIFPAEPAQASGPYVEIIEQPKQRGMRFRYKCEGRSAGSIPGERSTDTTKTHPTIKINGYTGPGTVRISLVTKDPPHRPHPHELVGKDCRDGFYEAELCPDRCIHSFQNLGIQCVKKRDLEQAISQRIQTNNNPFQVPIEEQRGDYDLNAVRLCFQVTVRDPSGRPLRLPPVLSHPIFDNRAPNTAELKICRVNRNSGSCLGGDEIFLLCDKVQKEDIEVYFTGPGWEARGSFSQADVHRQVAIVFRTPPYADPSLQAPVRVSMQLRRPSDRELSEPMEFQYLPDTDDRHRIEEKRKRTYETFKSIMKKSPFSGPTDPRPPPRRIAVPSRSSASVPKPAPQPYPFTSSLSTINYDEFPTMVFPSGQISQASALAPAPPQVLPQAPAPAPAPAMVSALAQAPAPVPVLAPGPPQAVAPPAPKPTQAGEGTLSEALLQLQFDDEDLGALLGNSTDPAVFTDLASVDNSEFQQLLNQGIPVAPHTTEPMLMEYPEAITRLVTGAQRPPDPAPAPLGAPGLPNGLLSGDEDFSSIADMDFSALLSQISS

In the case of `C=C1C(=O)[C@]23C[C@H]1C[C@H](OC(C)=O)[C@H]2[C@]1(C)[C@@H](OC(C)=O)C[C@H](O)C(C)(C)[C@H]1C(=O)[C@@H]3OC(C)=O` [ADENANTHIN], the inhibition entry (with RAW264.7 [1]; in assay [15]) was “Dose-dependent-effect” in each case. Further, the inhibition result with RAW264.7 [2], in the assay with RAW264.7 [5] and with RAW264.7 [13] was “Active” each time. In addition, the IC50 with HEK-293T [3] was 9.94 µM; in assay [4], around 100 µM; in the assay on HEK-293T [6] it was 2 µM; at Transcription factor p65 [8], around 40 µM; in the assay with HEK-293T [10], 0.81 µM; with HEK-293T [16] it was 0.72 µM. The Retention time on Transcription factor p65 [7] came to 14.4 min; at Transcription factor p65 [12], 14.6 min. Besides, the “Ratio IC50” value is listed as 2 in assay [9] and 10 in assay [14]. Besides, the result at Transcription factor p65 [11] was Active.

A word on the IC50: it is the concentration that inhibits the measured activity by half.
